Results: article PMC12980401 (Science translational medicine, 2025)

What was measured:
chow-fed rats [1] = assay: Counterregulatory response to hindbrain glucoprivation; type: in vivo, rat
chow-fed rats [2] = type: in vivo, rat
HFD-fed rats = type: in vivo, rat
[3] = system: chow-fed and HFD-fed rats; assay: Oral glucose tolerance test; type: in vivo, rat; conditions: for Glucose-stimulated plasma insulin: OGTT
musk shrew = assay: Food intake, body weight and emesis in musk shrews; type: in vivo, Suncus murinus; conditions: intraperitoneal 5 mg/kg; for Food intake in musk shrews: n = 9
Half-life in rat serum = type: in vitro ADME
rats = assay: Kaolin intake; conditions: fourth ICV 20 μg
chow-fed rats [4] = assay: Telemetry of core body temperature, physical activity and heart rate; conditions: lateral ventricle, high dose ODN (100 μg), TDN 20 and 100 μg
[5] = system: chow-fed and HFD-fed rats; assay: Insulin tolerance test; type: in vivo, rat; conditions: fourth ICV TDN 200 μg/2 μl
lean and DIO mice = assay: Food intake and body weight after intraperitoneal injection in mice; type: in vivo, mouse
DIO mice = assay: Hyperinsulinemic-euglycemic clamp in DIO mice; type: in vivo, mouse; conditions: single intraperitoneal 5 mg/kg before insulin infusion, vehicle 18%
[6] = HFD-fed rats, lateral ventricle 200 μg/2 μl
[7] = HFD-fed rats, fourth ICV TDN 200 μg/2 μl

O=C[C@H](O)[C@@H](O)[C@H](O)[C@H](S)CO [5-TG, 5-thio-D-glucose]
Food intake after glucoprivic agent (chow-fed rats [1]; lean rats, fourth ICV 210 μg at dark cycle onset, versus vehicle): increased food intake at 1 and 24 hours after injection

octadecaneuropeptide [ODN]
24-hour body weight change (chow-fed rats [2]; lean chow-fed rats, fourth ICV ODN 0.2, 2 and 20 μg): without affecting 24-hour body weight | Time to consume the first bout of food (latency) (chow-fed rats [2]; lean chow-fed rats, fourth ICV, 2 μg): delayed | Size of the first meal (chow-fed rats [2]; lean chow-fed rats, fourth ICV, 20 μg): reduced | 24-hour food intake and body weight (HFD-fed rats; HFD-maintained rats, fourth ICV, 20 μg): decreasing 24-hour food intake and body weight | Meal duration 6 to 12 hours postinjection (HFD-fed rats; HFD-maintained rats, fourth ICV, highest dose (20 μg)): decreased meal duration | Plasma glucagon after intraperitoneal insulin (chow-fed rats [1]; fourth ICV ODN 20 μg 15 min before ip insulin 0.75 U/kg, chow-fed rats): lowered plasma glucagon concentrations 30 min after intraperitoneal insulin | 5-TG-induced hyperglycemia (1-hour blood glucose) (chow-fed rats [1]; lean rats, fourth ICV ODN 20 μg pretreatment before 5-TG 210 μg): blunted 5-TG–induced hyperglycemia 1 hour after injection | 5-TG-mediated hyperphagia (chow-fed rats [1]; lean rats, fourth ICV ODN 20 μg/2 μl pretreatment before 5-TG 210 μg): suppressed 5-TG–mediated hyperphagia at the 4-hour time point | Circulating free fatty acids after 5-TG (chow-fed rats [1]; plasma 30 min, fourth ICV ODN 20 μg before 5-TG): suppressed by hindbrain ODN pretreatment | Glucose tolerance (OGTT) ([3]; DIO rats, fourth ICV 200 μg): markedly improved | OGTT area under the curve ([3]; lean rats, fourth ICV 200 μg (higher dose)): reduced the overall area under the curve | Glucose-stimulated plasma insulin ([3]; lean rats, fourth ICV 200 μg): without enhancing glucose-stimulated plasma insulin | 24-hour body weight change in musk shrews (musk shrew): without affecting body weight at 24 hours | Emetic episodes in musk shrews (musk shrew): caused no emetic episodes | Food intake in musk shrews (musk shrew): suppressed food intake at 6 and 24 hours after injection | Half-life in rat serum (Half-life in rat serum; rat serum, average half-life (fig. S6, I and J)): 12.4 min | Kaolin intake (rats): did not cause kaolin intake | Telemetry variables at individual hours (chow-fed rats [4]): decreased locomotor activity at hour 8

tridecaneuropeptide [TDN]
24-hour body weight (HFD-fed rats; [6]): without an impact on body weight | 24-hour food intake (HFD) (HFD-fed rats; [6]): suppressed 24-hour food intake | OGTT AUC [3, 7]: lowered the OGTT AUC | Glucose-stimulated plasma insulin [3, 7]: without heightening glucose-stimulated plasma insulin concentrations | Insulin sensitivity during insulin tolerance test [5]: improved by fourth ICV TDN | 24-hour body weight change in musk shrews (musk shrew): without altering 24-hour weight change | Food intake in musk shrews (musk shrew): suppressed 24-hour food intake | Half-life in rat serum (Half-life in rat serum; rat, serum): 21.2 min | Body weight loss over 9 days (lean and DIO mice; DIO mice, daily intraperitoneal 5 mg/kg for 9 days): 4.7% | Daily HFD intake (lean and DIO mice; DIO mice, daily intraperitoneal 5 mg/kg for 9 days, n = 6): suppressed HFD intake immediately on day 1 | 24-hour food intake and body weight (lean and DIO mice; lean mice, peripheral administration 5 mg/kg): no effect in lean mice | Suppression of endogenous glucose appearance (Ra) relative to baseline (DIO mice): 57%

B1: recombinant DBI protein: recombinant diazepam binding inhibitor protein, parent of ODN (protein, UniProt P07108 2-87, looked up)
Acyl-CoA-binding protein: SQAEFEKAAEEVRHLKTKPSDEEMLFIYGHYKQATVGDINTERPGMLDFTGKAKWDAWNELKGTSKEDAMKAYINKVEELKKKYGI
Chow intake (chow-fed rats [2]; chow-maintained rats, fourth ICV 2 μg/2 μl): suppressed chow intake at 6 and 12 hours postinjection | HFD intake (HFD-fed rats; HFD-maintained rats, fourth ICV 2 μg/2 μl): without affecting HFD intake
